# Test: Transmission of aqueous vitamin / castor oil ethoxylate formulations (Turbiscan LAb)
# Format: physicochemical
# Settings: ingredients preheated to 50° C.
# Experimental: Castor oil ethoxylates were evaluated in formulations with various vitamins by mixing 4 g of a vitamin with 4 g of the castor oil ethoxylate and subsequently adding 28 g water. All ingredients were preheated to 50° C. The transmission (light passing the through the emulsion) was measured using standard Turbiscan™ LAb equipment ex Formulaction. In the evaluation of the samples the highest transmission is looked for, since it indicates a clearer (and better) formulation.
# [1] = Comparative Example B: 4 g vitamin + 4 g CO36EO + 28 g water, unit assumed
# [2] = Example 1: 4 g vitamin + 4 g CO20EO + 28 g water, higher = clearer, better, unit assumed
transmission (light passing through the emulsion) (Comparative Example A: 4 g vitamin + 4 g CO28EO + 28 g water),Structure (SMILES),transmission (light passing through the emulsion) [1] [%],transmission (light passing through the emulsion) [2] [%],"transmission (light passing through the emulsion) (Comparative Example A: 4 g vitamin + 4 g CO28EO + 28 g water, unit assumed) [%]"
Not stable,CC(=O)OC/C=C(C)/C=C/C=C(C)/C=C/C1=C(C)CCCC1(C)C [Vit A acetate],0,2.2,–
–,C=C1CC[C@H](O)C/C1=C/C=C1\CCC[C@]2(C)[C@@H]([C@H](C)CCCC(C)C)CC[C@@H]12 [Vit D3],2,56.7,64.4

# Reference: patent US8318196B2, “Formulations comprising a vitamin and the use thereof to make fortified feed and personal care formulations” (Akzo Nobel N.V., priority 2006, dated 2012)
